A short description of this data set: Human HepG2 cell viability assay in 384 well format. Format: toxicity, cell-based. Details: dose 125 nL, time 70.5 hour; concentration not given beside the values. The following applies: HepG2 cells, read-out: Inhibition.
As for `CC(NC(=O)N1CCS(=O)(=O)CC1)c1c(F)cccc1Cl` (stereo not drawn), the cytotoxicity at 70.5 h is -4.16%.
The result for `O=C(Cc1c[nH]c2ncccc12)NCC(O)c1ccccc1F` (stereo not drawn) reads 15.1%.
The figure for `CC(C)(CO)N1CCN(S(=O)(=O)CCCF)CC1` is -8.05%; for `CN(CCOc1cccc(F)c1)CC(=O)Nc1ccncc1` it is -10.9%; for `CN(Cc1nnc(C2CC2)o1)Cc1ccccc1-c1ccccc1` it is -9.25%.
The result for `CN1CCN(C2CCN(CC(O)c3ccccc3)CC2)C1=O` (stereo not drawn) reads 4.73%; that for `Cc1cc(CN2CCCN(c3ccc(C#N)cc3)CC2)no1`, -7.74%.
As to `Cc1ccc(S(=O)(=O)N[C@H](CO)C(C)C)cc1N(C)C`, the cytotoxicity at 70.5 h was -4.66%.
The figure for `Cc1nccn1-c1ccc(NS(=O)(=O)c2cnn(C(C)C)c2)cn1` is -2.54%.
Consider `N#Cc1ncn(Cc2c(F)cccc2Cl)n1`, for which the cytotoxicity at 70.5 h is -5.34%.
Regarding `CNc1nnc(SCc2nnc(C(C)(C)C)o2)s1`, the cytotoxicity at 70.5 h amounted to 15.4%.
`CCNc1nnc(SCc2nnc(C(C)(C)C)o2)s1`: the cytotoxicity at 70.5 h was -8.88%.
The result for `O=C(CS(=O)(=O)Cc1csc(-c2ccc(F)cc2)n1)NCC1CC1` reads -6.8%; that for `O=C(Nc1cccnc1N1CCSCC1)c1ccc2c(c1)OCO2`, -4.23%.
The figure for `NC(=O)CS(=O)(=O)Cc1csc(-c2ccc(F)cc2)n1` is 13.6%.
In the case of `CS(=O)(=O)c1cc(C(=O)NS(=O)(=O)Cc2ccc(F)cc2)ccc1Cl`, the cytotoxicity at 70.5 h is -3.9%.
With `CC(C)C(=O)Nc1cccc(OCC(=O)NCc2ccccc2F)c1`, the cytotoxicity at 70.5 h was -5.29%.
The figure for `OCCOc1cc(F)ccc1NCc1ccc(F)c(F)c1` is -2.79%.
The result for `Cc1nnc2n1CCN(C(=O)C1CCN(Cc3ccccc3)CC1)C2` reads 14.2%; that for `CN(CC(N)=O)Cc1csc(-c2ccc(F)cc2)n1`, -0.0734%.
In the case of `Cc1nccn1-c1ccc(NS(=O)(=O)c2cnn(C)c2)cn1`, the cytotoxicity at 70.5 h was -4.84%.
The result for `CNC(=O)CN(C)C1CCN(c2ccc(Cl)cc2)CC1` reads 2.05%; that for `O=C(NS(=O)(=O)c1ccc(F)c(F)c1)c1cscn1`, 17.8%.
The figure for `CC(C)CCc1noc(CN2CCCC(CNS(N)(=O)=O)C2)n1` (stereo not drawn) is -1.48%; for `CC(C)Cc1noc(CN2CCCC(CNS(N)(=O)=O)C2)n1` (stereo not drawn) it is -3.24%.
On to `CCc1nc(CN2CCCN(C(=O)Cc3cccs3)CC2)cs1`, for which the cytotoxicity at 70.5 h was -6.45%.
Consider `CCOc1ccc(CNC2CCCN(c3cccnn3)C2)cc1OC` (stereo not drawn), for which the cytotoxicity at 70.5 h was 4.96%.
The result for `CCCNC(=O)CN(C)C1CCN(c2ccc(Cl)cc2)CC1` reads -6.78%; that for `COc1cc2c(nn1)CCN(Cc1noc(CC(C)C)n1)C2`, -4.19%.
The result for `CC(C)Oc1cccc(CN(C)C(=O)Nc2cccn(C)c2=O)c1` reads 2.82%.
Turning to `O=C(CCC1CCCO1)NCCN1CCCCC1` (stereo not drawn), the cytotoxicity at 70.5 h was -3.64%.
The result for `COCCNC(=O)N1CCOCC1c1c(C)nn(C)c1C` (stereo not drawn) reads -1.43%; that for `O=S(=O)(Cc1nc(C2CC2)no1)c1cc(F)ccc1F`, -12.2%.
The figure for `O=C(NCc1ccc(N2CCSCC2)cc1)NCc1cc[nH]n1` is -10.4%; for `O=C(Nc1cccc(F)c1)NC1CCN(Cc2ccncc2)CC1` it is -15.3%; for `CN(C)c1ccc(C(=O)Nc2cnn(Cc3ccccn3)c2)cc1` it is -9.41%.
`CC(Oc1cccc(Cl)c1)C(=O)Nc1cnn(CCN(C)C)c1` (stereo not drawn): the cytotoxicity at 70.5 h was 23.7%.
The result for `CN(C)c1cccc(C(=O)Nc2cnn(CC(N)=O)c2)c1` reads -16.4%; that for `Cc1ccc(-c2nc(C(=O)N(C)CC(=O)N3CCCC3)cs2)c(C)c1`, -4.38%; that for `CN(C)c1cccc(C(=O)Nc2cnn(Cc3ccccn3)c2)c1`, -9.4%.
The figure for `CCCN(CCC)C(=O)CN1CCCC1C(=O)N(C)C` (stereo not drawn) is -5.85%.
The result for `CC(=O)NCc1ccc(C(=O)N2CCCc3c(F)ccc(C)c32)cc1` reads -8.8%; that for `CN(c1ncc(S(N)(=O)=O)s1)C1CCC1`, -9.06%.
`CCS(=O)(=O)NCC(=O)N(C1CC1)C1Cc2ccccc2C1`: the cytotoxicity at 70.5 h was -9.21%.
Turning to `Cc1nn(C)c(C)c1C1COCCN1C(=O)CC(C)(C)C` (stereo not drawn), the cytotoxicity at 70.5 h is 24.2%.
With `Cc1noc(CN(C)c2ccccc2)n1`, the cytotoxicity at 70.5 h was -13.6%.
The figure for `COc1cccc(-c2nc(CNCCc3cccnc3)cs2)c1` is -19.3%; for `CCN1CC(CN(C)c2cc(C)nc(N)n2)Oc2ccccc21` (stereo not drawn) it is 17.6%.
Consider `CC(=O)c1cccc(OC(C)C(=O)Nc2cnn(CCN(C)C)c2)c1` (stereo not drawn), for which the cytotoxicity at 70.5 h is -12.3%.
The figure for `CCSc1cc(C(=O)N(Cc2cnn(C)c2)C(C)C)ccn1` is -11.4%; for `CCC(CNC(=O)COC)Oc1cccc(F)c1` (stereo not drawn) it is 14.9%; for `COc1ccc(C)cc1C(C)NS(=O)(=O)c1ccc2c(c1)CCC(=O)N2` (stereo not drawn) it is 8.83%.
On to `CCN(CC1CCOC1)C(=O)Cn1nnn(-c2cccs2)c1=O` (stereo not drawn), for which the cytotoxicity at 70.5 h is -15.9%.
The figure for `O=C(Cn1nnn(-c2cccs2)c1=O)NCC1CCOC1` (stereo not drawn) is 11.8%; for `Cc1cc(C)c(CNC(=O)NCCNc2ncccn2)c(=O)[nH]1` it is -12.7%; for `CC(CC(=O)N1CCN(c2cnccn2)CC1)c1ccc(F)cc1` (stereo not drawn) it is 0.499%.
Consider `Cc1nc2c(C#N)cnn2c(C)c1CCC(=O)N(C)C(C)C(C)C` (stereo not drawn), for which the cytotoxicity at 70.5 h is -11.8%.
Regarding `Cc1cc(C)c(CNC(=O)NCCNc2cnccn2)c(=O)[nH]1`, the cytotoxicity at 70.5 h is -4.64%.
On to `CCC(C#N)NC(=O)CCCOc1cccc(C(C)=O)c1` (stereo not drawn), for which the cytotoxicity at 70.5 h was -11.3%.
Regarding `O=C(NCc1nc(C2CC2)no1)N1CCOC(c2ccccc2F)C1` (stereo not drawn), the cytotoxicity at 70.5 h was -3.4%.
The result for `CCN(C)S(=O)(=O)c1ccc(Cl)cc1C#N` reads -7.9%; that for `CCc1csc(C2CCCN(C(=O)c3ccc(=O)n(C)n3)C2)n1` (stereo not drawn), -11.3%.
The result for `CC(C)c1csc(C2CCCN(C(=O)c3ccc[nH]3)C2)n1` (stereo not drawn) reads -4.24%; that for `Cn1cccc(NC(=O)NCCOCc2ccccc2)c1=O`, -13.2%.
The result for `CCS(=O)(=O)N1CCc2c(cccc2NCc2ncc[nH]2)C1` reads -10%; that for `CC(C)SCc1cccc(NC(=O)NC(C)c2nc[nH]n2)c1` (stereo not drawn), -7.97%; that for `O=C(NCc1nc(C2CC2)no1)N1CCOC(c2cccc(F)c2)C1` (stereo not drawn), 0.958%.
On to `CC(C)c1csc(C2CCCN(C(=O)c3ccc(=O)n(C)c3)C2)n1` (stereo not drawn), for which the cytotoxicity at 70.5 h is -0.564%.
On to `COCCOc1ncccc1C(=O)N(C)c1ccc(OC)c(OC)c1`, for which the cytotoxicity at 70.5 h was -11.7%.
Take `CCN(Cc1cccs1)S(=O)(=O)N(C)C(C)C`: the cytotoxicity at 70.5 h was -18.1%.
The figure for `Cc1ncccc1C(=O)NC1CC(=O)N(CC(F)(F)F)C1` (stereo not drawn) is -0.154%; for `O=C(O)c1csc(S(=O)(=O)N2CCN(Cc3ccc(Cl)cc3)CC2)c1` it is -12.5%.
Turning to `O=C(O)c1csc(S(=O)(=O)N2CCN(Cc3c(F)cccc3Cl)CC2)c1`, the cytotoxicity at 70.5 h was -31.1%.

The values above are taken from ChEMBL document CHEMBL3507680, “University of Dundee, Gates Library screen for HepG2 cell viability”.
